Results on 2 compounds are retold here after patent publication US20190170731A1, “METHOD TO MEASURE RELATIVE UTILIZATION OF AEROBIC GLYCOLYSIS BY POSITIONAL ISOTOPIC DISCRIMINATION” (priority 2016, published 2019).

Holding throughout (assay type): cell-based
One assay has as its system MDA-MB-231. The assay is described as follows: 2-NBDG glucose uptake assay. The following applies: MDA-MB-231, 100 nM insulin for 45 minutes, 30 μg/mL 2-NBDG. How it is done: (§1) FIG. 2. […] Sub-confluent cells were serum-starved overnight. Cells were then washed with PBS and cell culture medium was replaced with glucose- and serum-free medium. Fluorescently-tagged 2-NBDG (Cayman Chemical) was then added at a concentration of 30 μg/mL for 30 minutes. After addition of 2-NBDG, cells were treated with 100 nM insulin for another 45 minutes. Glucose uptake was then measured as described hereinbelow. The graph represents the averages of 2-NBDG glucose uptake ±SEM from 3 individual experiments (p<0.05).
(§2) Glucose uptake was analyzed using a 2-NBDG (2-deoxy-2-[(7-nitro-2,1,3-benzoxadiazol-4-yl)amino]-D-glucose, a fluorescently labeled 2-deoxyglucose) glucose uptake kit from Cayman Chemical. Briefly, cells were plated at 200,000 cells/well in a 24-well plate and allowed to grow to sub-confluency. Cells were then serum starved overnight. The next morning, cells were incubated in serum- and glucose-free medium for 30 minutes. Cells were then incubated with 30 μg/mL 2-NBDG for another 30 minutes. After incubation, cells were treated with 100 nM insulin for 45 minutes. Cells were then transferred to a clear-bottom black 96 cell plate. The plate was subjected to centrifugation at 400×g for 5 minutes. […] Signal intensity was measured with a Synergy 2 (BioTek) microplate reader at excitation/emission=485/535 nm.

A further assay deals with MDA-MB-453. The assay is described as follows: 2-NBDG glucose uptake assay. The following applies: MDA-MB-453, 100 nM insulin for 45 minutes, 30 μg/mL 2-NBDG. How it is done:
as §1, §2

For another assay, the system named is MDA-MB-231 cells. The assay is described as follows: [1-13C]glucose labeling and LC-MS measurement of relative glycolysis rate. The following applies: 10 μM KU-55933, MDA-MB-231 cells, 10 mM D-[1-13C]-glucose; samples at 1, 3 and 6 hours of labeling (as well as 9 hours, p<0.05). How it is done:
FIGS. 7A-B. A) Sub-confluent MDA-MB-231 cells were serum-starved overnight. Cells were washed with PBS and were then pre-treated with 10 μM KU-55933 (Halaby et al., 2008) for 30 minutes in the glucose- and serum-free medium. Fluorescently-tagged 2-NBDG (30 μg/ml) was then added for 30 minutes. Cells were treated with 100 nM insulin for another 45 minutes. Glucose Uptake was then measured following the manufacturer's instructions (Cayman Chemical). B) MDA-MB-231 cells were cultured in DMEM containing 10% FBS. After reaching […] confluent, cells were serum-starved overnight. Cells were then washed with PBS and incubated in serum- and glucose/pyruvate-free DMEM for 90 minutes. The labeling was initiated after replacing the medium with fresh serum- and glucose/pyruvate-free DMEM supplemented with 10 mM D-[1-^13C]-glucose ±10 μM KU-55933. […] 40 μL of medium was taken and diluted with 160 μL of methanol to precipitate the proteins. For LC-MS analysis, 2 μL of the supernatant were injected and analyzed with the Q-Exactive mass spec. The bar graph represents the average relative glycolysis rate ±SEM from 3 individual experiments (*p<0.05). […] These breast cancer cells were grown in DMEM supplemented with antibiotics and 10% fetal bovine serum. […] The relative rate of glycolysis for each cancer cell line was measured by the incorporation of [1-^13C]glucose into [3-^13C]lactate. […]

On to insulin, for which the “glucose uptake (2-NBDG) in response to insulin stimulation” value in the assay with MDA-MB-231 and with MDA-MB-453 was “enhanced glucose uptake” each time. In the case of `O=c1cc(-c2cccc3c2Sc2ccccc2S3)oc(N2CCOCC2)c1` [KU-55933], the “relative glycolysis rate ([1-13C]glucose to [3-13C]lactate)” value with MDA-MB-231 cells was “significant inhibition of glycolysis rate”.
